In patent US20120270237A9, “METHODS FOR THE IDENTIFICATION OF KINASE INTERACTING MOLECULES AND FOR THE PURIFICATION OF KINASE PROTEINS” (Cellzone AG, priority 2009, published 2012):

Legend:
Assay in all cases: Kinobeads competition binding, L-363 cell lysate
Set-up in all cases: endogenous in cells
Details in all cases: 10 μM free compound, L-363 lysate
[1] = biological target: MAP2K3 (Homo sapiens, UniProt P46734)
Procedure, shortened: (§1)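 Competition readout: iTRAQ 114/117 reporter-ion ratios from LC-MS/MS, compound-treated versus DMSO lysate. Free compound at 10 μM competed for kinase binding before addition of immobilized-compound beads. Source lysate came from L-363 cells exposed to 20 μM MG132 for three hours.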

[2] = biological target: MYT1 (Homo sapiens, UniProt Q99640)
Sequence of MYT1 (Q99640 whole entry): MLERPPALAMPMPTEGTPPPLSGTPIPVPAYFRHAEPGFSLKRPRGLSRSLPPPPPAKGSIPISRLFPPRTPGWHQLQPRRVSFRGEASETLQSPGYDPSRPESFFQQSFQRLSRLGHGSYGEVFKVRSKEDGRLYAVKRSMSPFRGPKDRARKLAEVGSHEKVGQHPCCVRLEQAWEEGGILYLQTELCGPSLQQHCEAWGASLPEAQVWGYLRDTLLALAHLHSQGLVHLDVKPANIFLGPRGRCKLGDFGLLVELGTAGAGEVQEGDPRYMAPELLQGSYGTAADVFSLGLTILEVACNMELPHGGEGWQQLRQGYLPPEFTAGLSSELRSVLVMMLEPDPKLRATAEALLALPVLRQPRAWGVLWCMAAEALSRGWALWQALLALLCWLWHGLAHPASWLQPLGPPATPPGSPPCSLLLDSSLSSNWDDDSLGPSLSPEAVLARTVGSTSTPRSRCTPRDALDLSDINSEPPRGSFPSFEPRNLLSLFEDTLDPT
Procedure, shortened: as §1

[3] = biological target: CDK9 (Homo sapiens, UniProt P50750)
Sequence of CDK9 (P50750 whole entry): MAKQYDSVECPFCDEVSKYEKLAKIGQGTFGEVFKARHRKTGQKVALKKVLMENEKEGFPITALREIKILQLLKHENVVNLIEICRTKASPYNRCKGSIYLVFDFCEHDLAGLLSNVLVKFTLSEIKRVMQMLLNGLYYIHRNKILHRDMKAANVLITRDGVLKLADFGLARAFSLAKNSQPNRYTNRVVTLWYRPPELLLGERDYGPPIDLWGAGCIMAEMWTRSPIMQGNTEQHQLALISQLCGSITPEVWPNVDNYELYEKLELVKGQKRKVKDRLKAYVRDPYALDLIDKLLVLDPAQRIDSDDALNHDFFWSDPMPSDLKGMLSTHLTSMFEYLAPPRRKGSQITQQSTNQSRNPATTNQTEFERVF
Procedure, shortened: as §1

[4] = biological target: ARG (Homo sapiens, UniProt P42684)
Sequence of ARG (P42684 whole entry): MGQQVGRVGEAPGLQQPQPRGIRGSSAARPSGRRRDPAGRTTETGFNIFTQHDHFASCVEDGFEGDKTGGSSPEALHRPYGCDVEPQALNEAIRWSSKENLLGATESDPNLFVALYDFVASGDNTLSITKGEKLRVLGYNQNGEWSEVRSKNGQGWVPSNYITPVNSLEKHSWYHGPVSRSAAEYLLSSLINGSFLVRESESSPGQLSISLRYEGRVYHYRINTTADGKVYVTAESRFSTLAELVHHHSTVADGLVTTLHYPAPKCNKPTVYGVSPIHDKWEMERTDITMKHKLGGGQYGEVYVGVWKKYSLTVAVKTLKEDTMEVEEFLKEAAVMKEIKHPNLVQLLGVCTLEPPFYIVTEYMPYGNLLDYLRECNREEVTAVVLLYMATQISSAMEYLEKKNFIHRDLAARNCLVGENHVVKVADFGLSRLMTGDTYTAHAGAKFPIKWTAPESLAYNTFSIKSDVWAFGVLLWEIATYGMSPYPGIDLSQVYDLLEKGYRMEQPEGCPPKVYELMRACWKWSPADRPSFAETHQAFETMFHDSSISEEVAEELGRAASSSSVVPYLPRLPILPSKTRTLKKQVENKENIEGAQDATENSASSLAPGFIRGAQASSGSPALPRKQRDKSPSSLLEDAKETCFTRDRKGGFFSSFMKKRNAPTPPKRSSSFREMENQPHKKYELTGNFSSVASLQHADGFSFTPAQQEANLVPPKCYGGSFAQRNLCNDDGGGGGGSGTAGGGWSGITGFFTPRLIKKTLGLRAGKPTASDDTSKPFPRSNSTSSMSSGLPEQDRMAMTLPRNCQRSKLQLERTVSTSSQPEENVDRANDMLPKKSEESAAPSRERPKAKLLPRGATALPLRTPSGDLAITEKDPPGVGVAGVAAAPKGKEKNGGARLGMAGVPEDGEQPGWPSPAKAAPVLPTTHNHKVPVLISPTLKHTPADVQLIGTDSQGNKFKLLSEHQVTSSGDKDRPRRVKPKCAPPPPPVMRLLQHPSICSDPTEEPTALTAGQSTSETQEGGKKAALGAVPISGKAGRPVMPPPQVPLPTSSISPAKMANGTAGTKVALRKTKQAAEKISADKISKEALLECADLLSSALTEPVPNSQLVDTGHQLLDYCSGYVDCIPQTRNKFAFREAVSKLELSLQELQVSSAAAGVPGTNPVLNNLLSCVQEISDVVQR
Procedure, shortened: as §1

[5] = biological target: T1, MAP3K5 (Homo sapiens, UniProt Q99683)
T1 sequence (Q99683 1-1374): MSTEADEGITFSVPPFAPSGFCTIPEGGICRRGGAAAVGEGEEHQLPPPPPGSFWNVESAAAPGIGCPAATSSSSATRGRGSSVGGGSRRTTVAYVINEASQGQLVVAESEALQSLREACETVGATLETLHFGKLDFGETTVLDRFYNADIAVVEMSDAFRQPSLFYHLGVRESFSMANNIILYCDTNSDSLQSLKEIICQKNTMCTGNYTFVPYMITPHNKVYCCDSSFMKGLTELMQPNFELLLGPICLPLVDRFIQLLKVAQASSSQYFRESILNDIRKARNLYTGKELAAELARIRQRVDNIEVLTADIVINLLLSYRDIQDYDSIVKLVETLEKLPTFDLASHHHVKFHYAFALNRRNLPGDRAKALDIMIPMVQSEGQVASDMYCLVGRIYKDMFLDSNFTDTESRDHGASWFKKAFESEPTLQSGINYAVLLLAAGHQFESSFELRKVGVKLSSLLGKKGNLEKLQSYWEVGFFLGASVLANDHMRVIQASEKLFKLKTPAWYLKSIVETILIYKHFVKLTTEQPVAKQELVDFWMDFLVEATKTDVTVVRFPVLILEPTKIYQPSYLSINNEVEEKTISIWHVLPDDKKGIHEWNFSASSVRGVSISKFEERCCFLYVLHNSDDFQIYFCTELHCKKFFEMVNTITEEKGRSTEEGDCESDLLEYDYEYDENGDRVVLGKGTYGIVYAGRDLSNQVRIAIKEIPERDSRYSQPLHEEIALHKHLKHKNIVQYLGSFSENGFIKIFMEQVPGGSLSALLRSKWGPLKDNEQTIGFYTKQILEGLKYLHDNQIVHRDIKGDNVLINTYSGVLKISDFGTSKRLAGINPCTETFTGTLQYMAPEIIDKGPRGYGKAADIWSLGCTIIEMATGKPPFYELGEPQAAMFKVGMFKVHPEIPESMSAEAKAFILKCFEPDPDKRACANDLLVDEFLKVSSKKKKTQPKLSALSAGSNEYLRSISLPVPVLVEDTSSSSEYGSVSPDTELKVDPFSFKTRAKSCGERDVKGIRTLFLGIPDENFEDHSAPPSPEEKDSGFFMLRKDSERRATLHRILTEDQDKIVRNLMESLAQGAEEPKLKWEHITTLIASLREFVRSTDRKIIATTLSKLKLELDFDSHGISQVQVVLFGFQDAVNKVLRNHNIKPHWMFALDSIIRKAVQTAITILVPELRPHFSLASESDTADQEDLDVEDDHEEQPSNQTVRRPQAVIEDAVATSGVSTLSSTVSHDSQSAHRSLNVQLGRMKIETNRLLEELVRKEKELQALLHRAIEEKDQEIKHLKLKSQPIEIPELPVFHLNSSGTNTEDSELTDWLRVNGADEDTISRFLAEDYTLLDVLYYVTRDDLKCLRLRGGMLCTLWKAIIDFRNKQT
Procedure, shortened: as §1

[6] = biological target: MARK2 (Homo sapiens, UniProt Q7KZI7)
Sequence of MARK2 (Q7KZI7 whole entry): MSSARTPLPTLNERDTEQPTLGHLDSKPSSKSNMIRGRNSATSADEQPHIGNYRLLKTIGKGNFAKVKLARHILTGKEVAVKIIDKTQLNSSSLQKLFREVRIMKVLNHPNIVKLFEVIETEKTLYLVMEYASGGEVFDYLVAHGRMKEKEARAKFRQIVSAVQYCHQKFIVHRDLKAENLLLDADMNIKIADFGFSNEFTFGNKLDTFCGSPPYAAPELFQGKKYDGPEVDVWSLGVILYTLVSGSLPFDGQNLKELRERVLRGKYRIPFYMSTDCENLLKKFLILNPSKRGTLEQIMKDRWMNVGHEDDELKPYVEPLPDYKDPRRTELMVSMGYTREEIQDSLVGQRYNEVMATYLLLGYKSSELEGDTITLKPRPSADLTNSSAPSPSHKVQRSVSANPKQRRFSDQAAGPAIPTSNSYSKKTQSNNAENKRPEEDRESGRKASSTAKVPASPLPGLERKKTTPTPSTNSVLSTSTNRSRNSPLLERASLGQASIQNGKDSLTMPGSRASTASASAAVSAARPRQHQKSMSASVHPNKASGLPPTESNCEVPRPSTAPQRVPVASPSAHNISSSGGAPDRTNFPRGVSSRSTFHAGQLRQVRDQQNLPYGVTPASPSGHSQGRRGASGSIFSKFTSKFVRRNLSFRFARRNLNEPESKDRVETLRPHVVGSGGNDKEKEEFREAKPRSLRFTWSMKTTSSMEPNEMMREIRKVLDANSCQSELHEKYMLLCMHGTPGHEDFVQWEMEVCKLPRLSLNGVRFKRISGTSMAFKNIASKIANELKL
Procedure, shortened: as §1

[7] = biological target: CDK2 (Homo sapiens, UniProt P24941)
Procedure, shortened: as §1

[8] = biological target: DNAPK (Homo sapiens, UniProt P78527)
Procedure, shortened: as §1

[9] = biological target: MLK3 (Homo sapiens, UniProt Q16584)
Sequence of MLK3 (Q16584 whole entry): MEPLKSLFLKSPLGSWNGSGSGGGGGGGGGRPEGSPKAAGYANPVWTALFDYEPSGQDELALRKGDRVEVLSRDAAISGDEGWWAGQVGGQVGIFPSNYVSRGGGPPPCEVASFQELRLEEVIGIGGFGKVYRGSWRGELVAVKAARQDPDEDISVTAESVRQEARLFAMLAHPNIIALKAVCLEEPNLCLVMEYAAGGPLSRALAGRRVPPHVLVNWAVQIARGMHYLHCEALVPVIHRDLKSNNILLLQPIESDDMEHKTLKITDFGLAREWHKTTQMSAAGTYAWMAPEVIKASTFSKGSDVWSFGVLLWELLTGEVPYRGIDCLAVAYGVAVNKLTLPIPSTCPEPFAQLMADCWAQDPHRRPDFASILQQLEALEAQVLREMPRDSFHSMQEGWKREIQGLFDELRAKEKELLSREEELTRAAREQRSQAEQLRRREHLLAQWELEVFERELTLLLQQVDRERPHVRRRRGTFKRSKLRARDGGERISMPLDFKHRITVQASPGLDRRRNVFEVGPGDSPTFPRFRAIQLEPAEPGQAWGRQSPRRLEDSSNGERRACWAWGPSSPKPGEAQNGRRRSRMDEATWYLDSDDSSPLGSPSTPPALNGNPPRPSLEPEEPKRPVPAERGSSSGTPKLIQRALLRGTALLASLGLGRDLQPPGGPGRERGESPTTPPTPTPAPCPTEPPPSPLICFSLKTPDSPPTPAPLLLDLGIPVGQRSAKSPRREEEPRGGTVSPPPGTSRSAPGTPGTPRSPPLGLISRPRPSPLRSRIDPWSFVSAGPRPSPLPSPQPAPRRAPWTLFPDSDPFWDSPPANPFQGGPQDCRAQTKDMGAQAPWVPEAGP
Procedure, shortened: as §1

[10] = biological target: MPSK1 (Homo sapiens, UniProt O75716)
Sequence of MPSK1 (O75716 whole entry): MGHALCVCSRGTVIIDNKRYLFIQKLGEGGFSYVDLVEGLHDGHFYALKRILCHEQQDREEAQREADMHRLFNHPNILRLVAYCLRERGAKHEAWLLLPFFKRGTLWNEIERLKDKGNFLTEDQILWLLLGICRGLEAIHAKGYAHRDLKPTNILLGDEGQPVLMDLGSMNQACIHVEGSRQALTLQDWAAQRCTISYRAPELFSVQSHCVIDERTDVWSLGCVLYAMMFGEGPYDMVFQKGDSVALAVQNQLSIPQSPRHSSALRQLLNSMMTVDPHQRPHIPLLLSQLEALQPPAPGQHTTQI
Procedure, shortened: as §1

[11] = biological target: YES (Homo sapiens, UniProt P07947)
Sequence of YES (P07947 whole entry): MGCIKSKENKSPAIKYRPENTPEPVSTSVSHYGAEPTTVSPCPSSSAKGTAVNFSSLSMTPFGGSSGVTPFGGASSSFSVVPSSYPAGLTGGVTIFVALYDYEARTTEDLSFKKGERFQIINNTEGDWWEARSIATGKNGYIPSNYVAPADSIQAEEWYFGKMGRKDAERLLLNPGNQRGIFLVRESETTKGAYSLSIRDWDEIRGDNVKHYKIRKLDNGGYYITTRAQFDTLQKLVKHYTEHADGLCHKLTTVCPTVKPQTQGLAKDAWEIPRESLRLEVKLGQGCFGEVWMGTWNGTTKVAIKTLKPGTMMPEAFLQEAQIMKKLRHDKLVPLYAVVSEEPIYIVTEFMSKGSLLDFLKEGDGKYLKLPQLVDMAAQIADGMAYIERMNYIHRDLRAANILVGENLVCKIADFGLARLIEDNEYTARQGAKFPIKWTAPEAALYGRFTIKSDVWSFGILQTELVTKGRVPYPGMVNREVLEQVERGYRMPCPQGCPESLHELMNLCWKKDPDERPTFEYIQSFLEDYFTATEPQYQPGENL
Procedure, shortened: as §1

Sequence of MAP2K3 (P46734 whole entry): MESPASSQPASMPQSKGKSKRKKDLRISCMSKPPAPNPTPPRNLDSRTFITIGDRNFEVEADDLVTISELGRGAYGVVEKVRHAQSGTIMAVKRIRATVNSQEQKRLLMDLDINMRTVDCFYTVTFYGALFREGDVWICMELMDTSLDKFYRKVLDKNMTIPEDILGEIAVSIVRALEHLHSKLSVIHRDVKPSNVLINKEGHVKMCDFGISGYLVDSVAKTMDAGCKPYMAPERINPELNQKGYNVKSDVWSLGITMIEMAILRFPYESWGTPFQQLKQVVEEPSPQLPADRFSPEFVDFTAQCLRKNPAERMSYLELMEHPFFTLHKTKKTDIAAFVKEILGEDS

inhibition at 10 µM [1]: 93.9%
Competition % [2]: 93.1%
inhibition at 10 µM [3]: 97.7%
inhibition at 10 µM [4]: 95.8%
inhibition at 10 µM [5]: 91.3%
inhibition at 10 µM [6]: 97%
Competition % [7]: 95.2%
inhibition at 10 µM [8]: 84%
Competition % [9]: 97.5%
inhibition at 10 µM [10]: 93.3%
inhibition at 10 µM [11]: 89.6%
Compound: CS(=O)(=O)Nc1ccccc1Nc1nc(Nc2cccc(OCCN)c2)ncc1Cl [CZC31326, N-(2-(2-(3-(2-aminoethoxy)phenylamino)-5-chloropyrimidin-4-ylamino)phenyl)methanesulfonamide]
